Source: publication PMC6600163, “Inhibitory Effects of Diketopiperazines from Marine-Derived Streptomyces puniceus on the Isocitrate Lyase of Candida albicans” (Molecules, 2019)
Values after ≈ are worked out from the molar mass of the structure shown. Values joined by “and” are separate entries in the source; they are usually repeats but may differ in a detail not shown here. Equal entries are not always repeated. “Also recorded” adds a separate entry of the source. Where two headings read alike, the source gives them in different places. One block for each compound: values may come before it.

Experiments:
[1] = system: C. albicans SC5314; assay: In vitro growth assay (MIC) in YNB broth; assay type: cell-based, Candida albicans; conditions: 28 °C
Description: (§1) The glyoxylate cycle is necessary for virulence in C. albicans, which can survive in macrophages under abundant carbon sources, such as fatty acids or their breakdown products. When C. albicans is phagocytosed by a macrophage, the shift in metabolism from glycolysis to the glyoxylate cycle is activated so that the cells can utilize C2 carbon sources. It was expected that ICL inhibitors would reduce the nutrient uptake capacity and impede survival of the pathogen in the macrophage. To determine whether cyclo(L-Phe-L-Val) affects C2 substrate use, C. albicans strains SC5314, ATCC10231, ATCC10259, ATCC11006, and ATCC18804 were grown in YNB liquid broth containing either 2% glucose or 2% acetate as the sole carbon source.
(§2) C. albicans strains were cultured in YNB broth containing 2% glucose at 28 °C for 24 h, centrifuged at 15,000× g for 1 min, and washed twice with sterile distilled water. […] Additional DMSO was added to the medium at a final concentration of 0.5%. The fungal strain culture (20 μL) was poured into a 96-well assay plate at a final concentration of 1 × 10^4 cells/mL and total volume of 100 μL. The culture plates were incubated at 28 °C for 3 days. The positive control was amphotericin B, which is a known antifungal compound.

[2] = target: T1, recombinant ICL (isocitrate lyase) from C. albicans ATCC10231 (Candida albicans, UniProt Q9P8Q7); assay: biochemical
T1 construct: made in house
T1 sequence (Q9P8Q7 whole entry): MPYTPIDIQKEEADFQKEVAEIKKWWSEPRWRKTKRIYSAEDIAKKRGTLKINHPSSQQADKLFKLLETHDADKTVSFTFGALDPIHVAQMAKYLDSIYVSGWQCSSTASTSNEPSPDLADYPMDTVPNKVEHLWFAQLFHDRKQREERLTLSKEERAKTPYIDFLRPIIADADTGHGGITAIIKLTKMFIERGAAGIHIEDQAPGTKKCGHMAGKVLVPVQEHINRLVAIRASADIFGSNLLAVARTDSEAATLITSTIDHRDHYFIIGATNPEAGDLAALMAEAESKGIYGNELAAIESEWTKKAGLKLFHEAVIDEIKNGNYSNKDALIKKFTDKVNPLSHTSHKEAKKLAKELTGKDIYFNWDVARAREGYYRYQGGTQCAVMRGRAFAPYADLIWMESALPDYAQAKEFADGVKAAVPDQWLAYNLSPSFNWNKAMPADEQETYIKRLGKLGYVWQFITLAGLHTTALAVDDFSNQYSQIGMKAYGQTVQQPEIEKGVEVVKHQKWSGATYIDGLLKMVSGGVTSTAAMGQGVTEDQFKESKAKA
Experimental: Isolated diketopiperazines were tested for ICL inhibitory activity according to methods reported previously. […] To determine the type of inhibition, kinetic analysis was performed with cyclo(L-Phe-L-Val) (inhibitor) and phenylhydrazine […]. The inhibitor constant (Ki) was calculated from the Dixon plot.
S. puniceus Act1085 was used as the diketopiperazine-producing strain. C. albicans SC5314 (ATCC MYA-2876) (wild-type), MRC10 (Δicl) (icl-deletion mutant), MRC11 (Δicl + ICL) (icl-deletion mutant), […], ATCC18804, and ATCC11006 were used for the growth assay. C. albicans ATCC10231 was used to obtain recombinant ICL. Prof. Michael C. Lorenz (University of Texas Health Science Center, Houston, TX, USA) kindly provided the ICL mutants.
Before evaluation of the ICL inhibitory activity of the test compounds, the recombinant ICL from C. albicans was prepared according to methods described in a previous report. The ICL inhibitory activity of the test compounds was determined according to a previously described method. The ICL inhibition assay is based on the principle that glyoxylate phenylhydrazone forms in the reaction reagent after treatment with isocitrate and phenylhydrazine. Each test compound was dissolved in DMSO. The reaction mixture consisted of 20 mM sodium phosphate buffer (pH 7.0), 1.27 mM threo-DL(+)isocitrate, 3.75 mM MgCl2, 4.1 mM phenylhydrazine, and 2.5 μg/mL purified ICL and was incubated with or without the test compounds at a concentration range of 1–128 μg/mL at 37 °C for 30 min. The increase in intensity of absorbance resulting from the formation of glyoxylate phenylhydrazone was observed using a spectrophotometer (Shimadzu) at a wavelength of 324 nm. The inhibitory activity of the test compound was calculated relative to that of the DMSO control (n = 3). The methods for determination of the IC50 value and ICL enzyme concentrations have been described in previous reports. A known ICL inhibitor, 3-nitropropionate, was used as a reference control.

[3] = system: C. albicans ATCC11006; assay: In vitro growth assay (MIC) in YNB broth; assay type: cell-based; conditions: Candida albicans, ATCC11006, 72 h, 28 °C
Description: as §1, §2

[4] = system: C. albicans ATCC18804; assay: In vitro growth assay (MIC) in YNB broth; assay type: cell-based; conditions: Candida albicans, ATCC18804, 72 h, 28 °C
Description: as §1, §2

[5] = system: C. albicans ATCC10259; assay: In vitro growth assay (MIC) in YNB broth; assay type: cell-based; conditions: Candida albicans, ATCC10259, 72 h, 28 °C
Description: as §1, §2

[6] = system: C. albicans ATCC10231; assay: In vitro growth assay (MIC) in YNB broth; assay type: cell-based; conditions: Candida albicans, ATCC10231, 72 h, 28 °C
Description: as §1, §2

[7] = system: C. albicans strains SC5314, ATCC10231, ATCC10259, ATCC11006, and ATCC18804; assay: In vitro growth assay, summary over five strains; assay type: cell-based, Candida albicans
Description: as §1, §2

[8] = system: icl mRNA expression; assay: icl expression analysis by semi-quantitative RT-PCR; assay type: cell-based, Candida albicans; conditions: SC5314 and MRC11, 2% potassium acetate plus 8, 16, 32 μg/mL compound, 4 h, 28 °C
Experimental: (§3) To determine whether the cell phenotype of the icl-deletion mutant is affected by the presence of cyclo(L-Phe-L-Val), a growth assay was conducted using C. albicans SC5314 (wild type) and two icl-deletion mutants (MRC10 and MRC11). After pre-culture, these strains were streaked onto YNB agar containing 2% glucose or 2% potassium acetate with or without 32 μg/mL cyclo(L-Phe-L-Val). All strains grew normally on both the plates with glucose and with glucose plus the compound. […] We further conducted semi-quantitative reverse-transcription (RT)-PCR to assess the effects of cyclo(L-Phe-L-Val) on ICL expression. No ICL-specific PCR product was detected in the cultures when SC5314 and MRC11 were grown in YNB liquid broth containing glucose. […] GPDH expression was detected in all treatments regardless of cyclo(L-Phe-L-Val) exposure.
(§4) Figure 3 Analysis of growth phenotypes and icl mRNA expression. […] Total RNA was prepared from these cells, and icl mRNA expression was analyzed by semi-quantitative RT-PCR. The GPDH housekeeping gene was evaluated as a loading control.
(§5) C. albicans SC5314 (wild type) and icl-deletion mutants (MRC10 and MRC11) were cultured in YNB broth containing 2% glucose at 28 °C on a rotary shaker for 24 h. […] RNA extraction, cDNA synthesis, and semi-quantitative RT-PCR were performed using previously described methods. […]

[9] = system: C. albicans SC5314 (wild type) and icl-deletion mutants (MRC10 and MRC11); assay: Growth phenotype on YNB agar plates; assay type: cell-based, Candida albicans; conditions: 2 days, 28 °C
Experimental: as §3, §4, §5

[10] = Candida albicans, SC5314, 72 h, 2% glucose, read-out: MIC
[11] = Candida albicans, SC5314, 72 h, 2% potassium acetate, read-out: MIC
[12] = Candida albicans, SC5314, 2% glucose, 72 h, read-out: MIC
[13] = ICL IC50, 37 °C, 30 min, pH 7.0, n = 3

SMILES: O=C(O)CC[N+](=O)[O-] [3-Nitropropionate, reference compound]
MIC ([1]; 2% glucose, 72 h): >256 µg/mL | ICL IC50 ([2]; 37 °C, 30 min, pH 7.0, n = 3): 1.90 ± 1.57 µg/mL | IC50 ([2]; 37 °C, 30 min, pH 7.0, n = 3, read-out: ICL IC50): 15.9 ± 2.13 µM

MIC [1, 10]: 1 µg/mL (≈ 1.08 µM) | MIC [1, 11]: 0.5 µg/mL (≈ 0.541 µM) | MIC ([3]; 2% glucose): 0.5 µg/mL (≈ 0.541 µM) | MIC ([3]; 2% potassium acetate): 0.5 µg/mL (≈ 0.541 µM) | MIC ([4]; 2% glucose): 1 µg/mL (≈ 1.08 µM) | MIC ([4]; 2% potassium acetate): 0.5 µg/mL (≈ 0.541 µM) | MIC ([5]; 2% glucose): 1 µg/mL (≈ 1.08 µM) | MIC ([5]; 2% potassium acetate): 0.5 µg/mL (≈ 0.541 µM) | MIC ([6]; 2% glucose): 1 µg/mL (≈ 1.08 µM) | MIC ([6]; 2% potassium acetate): 0.5 µg/mL (≈ 0.541 µM)
SMILES: C[C@@H]1[C@H](O)[C@@H](C)/C=C/C=C/C=C/C=C/C=C/C=C/C=C/[C@H](O[C@@H]2O[C@H](C)[C@@H](O)[C@H](N)[C@@H]2O)C[C@@H]2O[C@](O)(C[C@@H](O)C[C@@H](O)[C@H](O)CC[C@@H](O)C[C@@H](O)CC(=O)O[C@H]1C)C[C@H](O)[C@H]2C(=O)O [Amphotericin B, reference compound]

SMILES: O=C1N[C@@H](Cc2ccccc2)C(=O)N2CCC[C@@H]12 [Cyclo(L-Phe-L-Pro), cyclo(L-Phe-L-Pro)]
MIC [1, 12]: > 256 µg/mL

SMILES: CC(C)C1NC(=O)C(Cc2ccccc2)NC1=O [Cyclo(L-Phe-L-Val), cyclo(L-Phe-L-Val)]
MIC [1, 10]: > 256 µg/mL | MIC [1, 11]: 32 µg/mL (≈ 130 µM) | Ki [2]: 64.9 µM | IC50 [2, 13]: 110 µM and 113 µM | type of inhibition ([2]; kinetic analysis): mixed inhibitor | MIC ([3]; 2% glucose): > 256 µg/mL | MIC ([3]; 2% potassium acetate): 32 µg/mL (≈ 130 µM) | MIC ([4]; 2% glucose): > 256 µg/mL | MIC ([4]; 2% potassium acetate): 64 µg/mL (≈ 260 µM) | MIC ([5]; 2% glucose): > 256 µg/mL | MIC ([5]; 2% potassium acetate): 64 µg/mL (≈ 260 µM) | MIC ([6]; 2% glucose): > 256 µg/mL | MIC ([6]; 2% potassium acetate): 32 µg/mL (≈ 130 µM) | MIC ([7]; Candida albicans, acetate as sole carbon source, range over five strains, read-out: minimum inhibitory concentration): 32 to 64 µg/mL (≈ 130 to 260 µM) | inhibitory effect on C. albicans growth ([7]; glucose as sole carbon source): no inhibitory effect | intensity of PCR band of icl product (icl transcript level) [8]: decreased; also recorded: declined | growth on YNB agar ([9]; 2% glucose plus 32 μg/mL compound): grew normally | growth on YNB agar ([9]; 2% potassium acetate plus 32 μg/mL compound): none of the tested strains exhibited growth; also recorded: no growth

SMILES: CC(C)C[C@@H]1NC(=O)[C@@H]2CCCN2C1=O [Cyclo(L-Pro-L-Leu), cyclo(L-Pro-L-Leu)]
MIC [1, 10]: > 256 µg/mL | IC50 [2, 13]: 534 µM

SMILES: O=C1NC(Cc2ccc(O)cc2)C(=O)N2CCCC12 [Cyclo(L-Pro-L-Tyr), cyclo(L-Pro-L-Tyr)]
MIC [1, 12]: > 256 µg/mL | IC50 [2, 13]: > 984 µM

SMILES: CC(C)[C@@H]1NC(=O)[C@@H]2CCCN2C1=O [Cyclo(L-Pro-L-Val), cyclo(L-Pro-L-Val)]
MIC [1, 10]: > 256 µg/mL | IC50 [2, 13]: 516 µM
